In US20220397569A1, “ASSAY FOR RAPID EVALUATION OF CHOROIDAL MAST CELL DEGRANULATION” (THE JOHNS HOPKINS UNIVERSITY, priority 2019, published 2022):
Structures can show the parent of a compound that is named as a salt. Where two headings read alike, the source gives them in different places.

Key:
[1] = tested on: choroidal MC degranulation; format: in vivo, rat
Protocol: Hydrogel preparation and injection. […] All components were then mixed together by vortex and placed on ice. The final solution was loaded into an insulin syringe with a 31-gauge needle (BD Biosciences, San Jose, Calif., USA) and then, exposed to UV light (AnalytikJena, Upland, Calif., USA) for 1.5 minutes. The release and stability of the hydrogel were evaluated in vitro in PBS, pH 7.4 at 37° C.20. The amount of 48/80 released was measured using bicinchoninic acid (BCA) assay.
Alcian blue staining. After RPE removal, eyecups were fixed in methanol-formalin-acetic acid cocktail for 30 minutes and MCs were further stained with 0.05% Alcian blue (pH 5.0) in 0.02 M sodium acetate buffer for 45 minutes. Choroids were isolated after eyecups were split at the meridian and the number of non-degranulated and degranulated MCs were counted.
RPE degeneration. After the choroid/sclera eyecup was stained with anti-RPE65 Ab, 4-5 fields from the gel and non-gel areas of each choroid were captured as optimized z-stacks at 10 or 20× magnification with Zeiss LSM710. Images were exported to ImageJ software, converted into 8-bit gray color and then, thresholded. The dark area was considered degenerating RPE. To exclude the area of RPE nucleus (unstained with anti-RPE65 Ab, therefore dark) from the total dark area, particle sizes ranging from 100-infinity (pixels^2) were analyzed so nuclei were excluded. Percentage of RPE degeneration was averaged per choroid and then, quantified.
Retinal and choroidal thickness. Eight μm cryosections through the optic nerve were stained with Picrosirius Red Stain Kit (Polysciences, Inc, Warrington, Pa., USA) for 5 minutes as recommended by the manufacturer. After rinsing in hydrochloric acid and dehydrating in ethanol, sections were cover-slipped with Permount Mounting Medium (Thermo Fisher Scientific, Waltham, Mass., USA). The sections were then imaged with a Zeiss Photomic II microscope at 10×, and adjacent overlapping images of each section were taken from Ora serrata to Ora serrata. The overlapping images were then stitched using Adobe Photoshop and a panorama image was generated. The entire retina and choroid of each panorama image was precisely hand-traced and areas of the retina and choroid, respectively, were measured using ImageJ.
(§1) Electroretinogram (ERG). After overnight dark adaptation, rats were deeply anesthetized followed by pupil dilation. The rats were placed on a heated platform and full-field scotopic ERGs were elicited by white light flashes with corneal electrodes at intensities ranging from 0.01 to 1 cd·s/m^2 using the Celeris ERG system (Diagnosys LLC, Lowell, Mass., USA). The amplitude of the a- and b-waves was measured from the a-wave trough to the b-wave peak.
Volumetric and sphericity measurement. Volumetric and sphericity measurements were performed in the rats to analyze changes in shape and size of choroidal macrophages/monocytes stained with Iba1 as previously reported.^23 Briefly, randomly chosen 4-5 fields of optimized 40× magnification z-stacks per choroid captured with Zeiss LSM710 were opened in Surpass View of Imaris software and surfaces (surface detail 1.5 μm) were created, using background subtraction (0.5 μm). Voxel number filtering was applied to remove nonspecific particles in the surfaces created. Cells touching others or ones which had only a portion of the cell body visible were omitted from the volume rendering and then, the cell volume and sphericity were quantified with Imaris software.
(§2) Drug treatments. Rats were pretreated for 1-2 days prior to 48/80 hydrogel injection with either oral treatment of ketotifen fumarate (15 mg/kg) or PBS twice daily. MC tryptase inhibitor APC 366 (5 mg/kg, CAS 258932-85-8, R&D Systems, Minneapolis, Minn.)^24 or control vehicle was administered subcutaneously once daily for 8 weeks.

[2] = mice, osteoarthritis model; cited from earlier work
RBL-2H3 cells = assay: β-hexosaminidase release assay for MC degranulation in RBL-2H3 cells; format: cell-based; details: Rattus norvegicus, RBL-2H3, 0.75 h; 48/80 10 μg/mL, ketotifen fumarate 10 μg/mL, 45 minutes
Protocol: In vitro assays. RBL-2H3 cells (CRL-2256, ATCC, Manassas, Va., USA) were used for the in vitro assay for MC degranulation. Cell degranulation was assessed by the (3-hexosaminidase release as previously described.^22 A density of 50 000 cells/well was plated overnight in a 96-well plate. Ten μg/mL of 48/80 or 10 μg/mL of ketotifen fumarate (1(2628, Millipore Sigma, St Louis, Mo., USA)+10 μg/mL of 48/80 dissolved in 100 μL serum free media (DMEM with 1.0 g/L glucose) (Thermo Fisher Scientific, Waltham, Mass.) were added to each well and incubated for 45 minutes. Then, the cells were lysed using 1% triton X-100 to determine MC β-hexosaminidase that was still cell associated. Twenty μL of the supernatant and then, the cell lysate was collected and added to 50 μL of cold 4-Nitrophenyl N-acetyl-B-d-glucosaminide (1.3 mg/mL in Citrate Buffer, pH 4.5, Millipore Sigma, St Louis, Mo., USA) to detect the amount of β-hexosaminidase released. […] The plate was read at 405 nm wavelength using a microplate reader (ELx808, BioTek, Winooski, Vt., USA). Degranulation was calculated as the percentage of β-hexosaminidase activity measured in the supernatants relative to the total amount of β-hexosaminidase activity in the cells exposed to 1% triton X-100 (100% degranulation).

choroidal MCs [3] = assay: Ex vivo eyecup assay, co-incubation with 48/80 (MC degranulation, macrophage volume and sphericity); format: cell-based; details: S/D rat eyecups, 48/80 300 μg/mL with ketotifen fumarate 300 μg/mL, 3 hours
Protocol: (§3) Ex vivo assays. An ex vivo assay was developed to evaluate drugs quickly and efficiently. After enucleation, the anterior segments and retinas were excised and the eyecups were split at the meridian and divided in halves. Then, eyecups were incubated with 300 μg/mL of 48/80 with or without 300 μg/mL of ketotifen fumarate in serum free DMEM in a 48-well plate for 3 hours. To evaluate oral ketotifen fumarate potential to prevent MC degranulation, rats were treated orally twice daily with ketotifen fumarate (15 mg/kg) in PBS or with PBS as control for 4 days and 2 hours prior to enucleation on the 5th day. Eyes were enucleated and exposed in 48/80 serum free DMEM for 3 hours. After washing, RPE was removed and the eyecup fixed for histochemistry. The choroid was isolated from the sclera and MCs were stained for NSE activity and viewed on the Zeiss LSM710 for the autofluorescence of the reaction product. The numbers of non-degranulated and degranulated cells were counted in the whole choroid. […]
(§4) Volumetric and sphericity measurement. […] Cells touching others or ones which had only a portion of the cell body visible were omitted from the volume rendering and then, the cell volume and sphericity were quantified with Imaris software.

choroidal MCs [4] = assay: Ex vivo eyecup assay after oral pretreatment of rats; set-up: species or system rat; details: oral 15 mg/kg twice daily for 4 days prior to enucleation; eyecups in 48/80 300 μg/ml 3 hours; compared to PBS
Protocol: as §3, §4

[5] = Pharmacokinetic study of oral ketotifen fumarate in eye tissue (LC/MS-MS); format: in vivo, rat; details: 3 mg/kg once daily by gavage, sacrificed on the 5th day
Protocol: Pharmacokinetic study. Ketotifen fumarate quantification in plasma and eye tissue was conducted using high-performance liquid chromatography with tandem mass spectrometry (LC/MS-MS). Briefly, acetonitrile containing 0.5 μM losartan as internal standard was used to extract ketotifen from choroid and retina. Standards were prepared by spiking ketotifen fumarate in naive tissue from […] in a half log dilution series. Samples were weighed and placed in low retention microcentrifuge tubes with 5 μL extraction solution/mg tissue and pestle homogenized. Samples were vortexed followed by centrifugation at 16 000 g for 5 minutes at 4° C. The supernatants were transferred to a 96-well plate and 2 μL were injected for analysis. Samples were analyzed on an UltiMate 3000 UHPLC coupled to Q Exactive Focus orbitrap mass spectrometer (Thermo Fisher Scientific, Waltham, Mass., USA) using an Agilent EclipsePlus C18 RRHD (1.8 μm; 2.1. 100 mm) column. The mobile phase consisted of water+0.1% formic acid, and acetonitrile+0.1% formic acid. […] Samples were analyzed in positive ion mode via heated electrospray with capillary temperature set at 350° C. and a spray voltage of 3.5 kV. […] Data were acquired and quantified with Xcalibur software (Thermo Fisher Scientific, Waltham, Mass., USA).

[6] = Tolerability of oral ketotifen fumarate in rats (RPE, body weight, ERG); format: in vivo, rat
Protocol: as §1, §2

[7] = rats; cited from earlier work
[8] = APC 366 5 mg/kg subcutaneous daily, 4 weeks
[9] = oral ketotifen fumarate 15 mg/kg twice daily, 4 weeks post 48/80-hydrogel implantation

Question: Which results are given for NC(=O)[C@@H]1CCCN1C(=O)[C@H](CCCN=C(N)N)NC(=O)c1ccc2ccccc2c1O [APC 366]?
Answer: RPE degeneration [1, 8]: RPE degeneration was significantly inhibited; choroidal macrophage/monocyte activation [1, 8]: choroidal macrophage/monocyte activation was prevented; retinal and choroidal thickness ([1]; APC 366 5 mg/kg subcutaneous daily, 8 weeks): significantly less retinochoroidal thinning; ERG amplitude, a- and b-waves ([1]; rat, in vivo, sc, 5 mg/kg): reduction in ERG amplitude of both a- and b-waves was prevented; inflammation (transcriptional expression of IL-1β, IL-6, IL-8, CC-motif ligand 2, MMP-3) [2]: suppressed inflammation

Question: For CN1CCC(=C2c3ccccc3CC(=O)c3sccc32)CC1 [ketotifen fumarate], which inhibition at 10 µg/mL (RBL-2H3 cells) is on record?
Answer: Its inhibition at 10 µg/mL is 56%.

Question: What about the “choroidal macrophage activation (sphericity, volume of Iba1+ cells)” value (choroidal MCs [3]) of the same compound?
Answer: Its value is “choroidal macrophage activation was prevented”.

Question: What about the “prevention of 48/80-induced MC degranulation” value (choroidal MCs [3]) of the same compound?
Answer: The value was “prevented MC degranulation, equivalent to the level of untreated eyecups”.

Question: What about the MC degranulation prevented (choroidal MCs [4]) of the same compound?
Answer: The MC degranulation prevented was 37%.

Question: What about the macrophage activation (choroidal MCs [4]) of the same compound?
Answer: The macrophage activation was “significantly prevented macrophage activation”.

Question: What about the “ketotifen fumarate in choroid” value [5] of the same compound?
Answer: The value was 13 to 29 nM.

Question: What about the “ketotifen fumarate in retina” value [5] of the same compound?
Answer: The value was 12 to 52 nM.

Question: And the MC degranulation [1, 9]?
Answer: Its MC degranulation is “significantly prevented”.

Question: What about the RPE degeneration [1, 9] of the same compound?
Answer: The RPE degeneration was “significantly prevented RPE degeneration”.

Question: And the “retina and choroidal thickness” value ([1]; oral ketotifen fumarate 15 mg/kg twice daily, 8 weeks post implantation)?
Answer: Its value is “retinochoroidal thinning was inhibited”.

Question: And the “RPE morphology or viability” value ([6]; normal S/D rats, oral 15 mg/kg twice daily for 6 wk)?
Answer: The value was “did not affect RPE morphology or viability”.

Question: What about the “ERG amplitudes after drug treatment alone” value ([6]; normal rats, 6 weeks of drug treatment) of the same compound?
Answer: Its value is “normal”.

Question: What about the adverse effects ([6]; oral administration) of the same compound?
Answer: The adverse effects was “did not manifest any adverse effects”.

Question: What about the “growth of the animals (body weight)” value ([6]; oral twice daily for 6 wk after 48/80 implantations) of the same compound?
Answer: Its value is “nor did it affect growth of the animals”.

Question: What about the “non-REM and REM sleep” value [7] of the same compound?
Answer: The value was “dose dependently decreased non-rapid eye movement (REM) sleep and increased REM sleep”.
